Reference: patent US11332485B2, “Penicillin-binding protein inhibitors” (priority 2017, dated 2022)
pEC50: −log10 of the molar value. Read-outs that look alike come from different tables or passages of the source.

Tests used:
[1] = target: T1, PBP3 from Escherichia coli (Escherichia coli, UniProt P0AD68); test: Fluorescence polarization competition binding assay with Bocillin-FL
T1 construct: made in house
Method in brief: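 Fluorescence polarization competition assay with Bocillin-FL at 0.1 μM final and purified E. coli PBP3 at 1.5 μM final in 50 mM Hepes pH 8.0, 300 mM NaCl, 5% glycerol. Inhibitor preincubated with PBP3 for 30 min before probe addition; FP then read continuously for 60 min. Potency reported in binned categories.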

[2] = tested on: hyper-permeable E. coli 901C; test: Broth microdilution MIC assay; type: cell-based; conditions: Escherichia coli, read-out: E. coli 901C MIC
Method in brief: (§1)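 MIC taken by eye as the lowest compound concentration showing no growth after 16-20 hours at 37° C. Cultures grown 3-5 h in cation-supplemented Mueller-Hinton broth were added to 2-fold compound dilution series at a starting density of 5×10^5 CFU/mL, following CLSI methods.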

S. aureus ATCC 29213 = test: Broth microdilution MIC assay; type: cell-based; conditions: Staphylococcus aureus, ATCC29213; broth microdilution, 16-20 hours at 37° C.; read-out: S. aureus 29213 MIC
Method in brief: as §1

[3] = target: T2, PBP1b from Escherichia coli (Escherichia coli, UniProt P02919); test: Radioligand competition binding assay with 14C-labeled boronic acid probe (Example 96); conditions: 14C-labeled probe 96 at 20 μM, PBP 0.1 μM; read-out: E. coli K12 PBP1b EC50
T2 construct: made in house
T2 sequence (P02919 whole entry): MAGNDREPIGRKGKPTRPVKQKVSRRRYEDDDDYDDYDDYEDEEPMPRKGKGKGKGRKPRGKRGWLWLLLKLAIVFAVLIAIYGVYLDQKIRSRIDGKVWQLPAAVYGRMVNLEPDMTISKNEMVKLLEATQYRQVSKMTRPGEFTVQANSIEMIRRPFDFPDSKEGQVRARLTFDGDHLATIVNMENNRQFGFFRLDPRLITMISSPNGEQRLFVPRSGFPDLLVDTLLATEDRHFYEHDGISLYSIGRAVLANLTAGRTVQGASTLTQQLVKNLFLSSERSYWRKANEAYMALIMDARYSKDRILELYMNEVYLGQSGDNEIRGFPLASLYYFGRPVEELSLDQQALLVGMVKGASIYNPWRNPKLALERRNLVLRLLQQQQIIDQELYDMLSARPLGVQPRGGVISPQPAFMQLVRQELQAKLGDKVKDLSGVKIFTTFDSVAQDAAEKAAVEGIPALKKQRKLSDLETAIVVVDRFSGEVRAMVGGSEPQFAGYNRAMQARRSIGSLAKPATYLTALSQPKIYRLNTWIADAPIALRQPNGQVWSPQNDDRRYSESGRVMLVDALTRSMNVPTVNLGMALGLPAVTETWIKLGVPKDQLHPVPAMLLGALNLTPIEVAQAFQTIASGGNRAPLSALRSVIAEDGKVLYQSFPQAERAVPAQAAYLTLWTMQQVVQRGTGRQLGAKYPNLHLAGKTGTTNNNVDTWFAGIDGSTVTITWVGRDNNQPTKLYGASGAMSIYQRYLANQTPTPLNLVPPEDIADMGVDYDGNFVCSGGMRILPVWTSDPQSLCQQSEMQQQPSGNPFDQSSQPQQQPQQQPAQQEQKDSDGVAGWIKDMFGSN
Source text: (§2) To determine the ability of boronic acid-based test PBP inhibitors to bind Penicillin Binding Proteins (PBPs), a radio-labelled boronic acid PBP inhibitor (Example 96) was used in competition binding assays to determine boronic acid PBP inhibitor binding to PBP1a or PBP1b from Escherichia coli. PBP1a and PBP1b were purified as described previously (Bertsche, U.; et al., J. Biol. Chem. 2005, 280 (45), 38096-38101; Born, P.; et al., J Biol. Chem. 2006. 281 (37), 26985-26993). To establish assay conditions for competition binding, an enzyme titration/saturation binding experiment was performed. Saturation binding was performed in a buffer comprised of 20 mM Tris (pH 7.5), 500 mM NaCl and 0.1% (v/v) TritonX-100, with PBP1a/PBP1b at a final concentration of 0.1 μM and 96 at final concentrations ranging from 0-100 μM. Mixtures were incubated for 60 minutes, then applied to Zeba Spin Desalting columns or plates (ThermoFisher Scientific) and centrifuged at 1000-1500×g for 2 minutes. The flow through, containing PBP bound with 96, was recovered and 100 μL mixed with 5 mL of UltimaGold liquid scintillation cocktail (Perkin Elmer), and the radioactivity counted using a Beckman Coulter LS 6500 Multipurpose scintillation counter. PBP binding of 96 approached saturation at 20 μM of ^14C-labeled probe. The competition binding assay was validated using the beta-lactam ampicillin, with 96 at a final concentration of 20 μM, PBP1a/PBP1b at a final concentration of 0.1 μM. PBP1a/PBP1b was incubated with ampicillin in a 96-well microplate for 60 minutes, then 96 was added and the mixtures incubated for an additional 60 minutes. The mixtures were then applied to Zeba Spin desalting plates and centrifuged at 1000×g for 2 minutes. The flow through was recovered and 100 μl mixed with 5 ml of UltimaGold liquid scintillation cocktail and the radioactivity counted. Ampicillin inhibited binding of 96 with an EC50 (the concentration of inhibitor required to reduce binding of 96 by 50%) of less than 0.5 μM. Binding assays with boronic acid PBP inhibitors were performed in an identical fashion. The potency of boronic acid PBP inhibitors was reported as the EC50 value.
(§3) Representative results are shown in Table 5, where A represents a potency of >100 μM, B represents a potency between 10 μM and 100 μM inclusive, and C represents a potency of <10 μM. NT=Not Tested.

[4] = tested on: E. coli DH5α/pLBII-CTX-M15; test: Broth microdilution MIC assay, engineered strain producing CTX-M15; type: cell-based, Escherichia coli; conditions: Escherichia coli, read-out: E. coli DH5α/pLBII-CTX-M15 Microbiological Activity (MIC)
Method in brief: (§4)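 CLSI broth microdilution in cation-supplemented Mueller-Hinton broth, 2-fold compound dilutions, 5×10^5 CFU/mL inoculum, 16-20 h at 37° C, MIC read visually as lowest concentration without growth. E. coli DH5α carries CTX-M15 on pLBII under Lac promoter, or empty pLBII as control.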

[5] = target: T3, PBP1a from Escherichia coli (Escherichia coli, UniProt P02918); test: Radioligand competition binding assay with 14C-labeled boronic acid probe (Example 96); conditions: PBP 0.1 μM
T3 construct: made in house
T3 sequence (P02918 whole entry): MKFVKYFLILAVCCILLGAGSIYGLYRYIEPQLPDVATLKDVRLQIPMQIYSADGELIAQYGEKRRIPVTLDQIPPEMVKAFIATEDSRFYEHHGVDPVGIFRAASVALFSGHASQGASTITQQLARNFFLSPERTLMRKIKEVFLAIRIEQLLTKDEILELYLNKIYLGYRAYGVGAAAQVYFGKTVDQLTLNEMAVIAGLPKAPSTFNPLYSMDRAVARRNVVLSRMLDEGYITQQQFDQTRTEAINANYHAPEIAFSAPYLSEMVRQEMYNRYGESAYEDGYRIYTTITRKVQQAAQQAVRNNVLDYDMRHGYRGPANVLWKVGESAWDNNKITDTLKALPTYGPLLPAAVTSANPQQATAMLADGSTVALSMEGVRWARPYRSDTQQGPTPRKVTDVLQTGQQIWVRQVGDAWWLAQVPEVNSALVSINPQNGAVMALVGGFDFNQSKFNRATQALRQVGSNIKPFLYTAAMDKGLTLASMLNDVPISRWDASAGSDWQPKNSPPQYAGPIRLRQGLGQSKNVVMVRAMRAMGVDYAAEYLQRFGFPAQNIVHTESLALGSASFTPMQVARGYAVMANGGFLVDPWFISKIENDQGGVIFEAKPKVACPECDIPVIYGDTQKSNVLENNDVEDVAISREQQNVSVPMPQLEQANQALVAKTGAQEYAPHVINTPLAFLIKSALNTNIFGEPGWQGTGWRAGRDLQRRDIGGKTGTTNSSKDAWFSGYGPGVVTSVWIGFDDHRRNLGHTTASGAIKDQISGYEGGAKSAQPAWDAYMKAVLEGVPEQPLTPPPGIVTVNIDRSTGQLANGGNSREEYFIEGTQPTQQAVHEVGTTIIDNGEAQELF
Source text: as §2, §3

E. coli DH5α/pLBII = test: Broth microdilution MIC assay, empty vector control strain; type: cell-based; conditions: Escherichia coli, read-out: E. coli DH5α/pLBII Microbiological Activity (MIC)
Method in brief: as §4

[6] = 14C-labeled probe 96 at 20 μM, read-out: E. coli K12 PBP1a EC50
[7] = E. coli K12 PBP1a EC50, 14C-labeled probe 96 at 20 μM

T1 sequence (P0AD68 1-577): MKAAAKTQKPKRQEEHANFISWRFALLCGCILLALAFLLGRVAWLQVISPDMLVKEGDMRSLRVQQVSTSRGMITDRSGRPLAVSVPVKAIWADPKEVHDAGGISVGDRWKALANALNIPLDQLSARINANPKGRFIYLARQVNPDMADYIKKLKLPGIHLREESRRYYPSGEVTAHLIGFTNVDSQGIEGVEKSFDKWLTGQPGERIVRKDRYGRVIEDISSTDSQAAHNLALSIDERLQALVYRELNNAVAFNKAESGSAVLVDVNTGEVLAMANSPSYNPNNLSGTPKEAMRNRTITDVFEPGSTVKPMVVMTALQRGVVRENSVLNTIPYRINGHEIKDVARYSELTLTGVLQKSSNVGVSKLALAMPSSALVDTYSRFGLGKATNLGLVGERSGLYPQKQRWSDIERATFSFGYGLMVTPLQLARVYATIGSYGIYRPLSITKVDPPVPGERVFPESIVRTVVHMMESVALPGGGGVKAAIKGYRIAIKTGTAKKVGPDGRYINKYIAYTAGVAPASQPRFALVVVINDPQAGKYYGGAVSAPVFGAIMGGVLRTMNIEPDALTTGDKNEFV

For CCN1CCN(C(=O)NC(Cc2ccccc2)C(=O)N[C@H]2Cc3cccc(C(=O)O)c3OB2O)C(=O)C1=O (stereo partly drawn) [Example 79, (3R)-3-(2-(4-ethyl-2,3-dioxopiperazine-1-carboxamido)-3-phenylpropanamido)-2-hydroxy-3,4-dihydro-2H-benzo[e][1,2]oxaborinine-8-carboxylic acid], the pEC50 [1] was 3.30 to 4.52, the MIC [2] was under 64 µg/mL and the MIC (S. aureus ATCC 29213) was under 64 µg/mL. For the same compound, the pEC50 [3] was over 5.00.

In the case of Nc1nc(C(NC(=O)N2CCNC2=O)C(=O)N[C@H]2Cc3cccc(C(=O)O)c3OB2O)cs1 (stereo partly drawn) [Example 19, (3R)-3-(2-(2-aminothiazol-4-yl)-2-(2-oxoimidazolidine-1-carboxamido)acetamido)-2-hydroxy-3,4-dihydro-2H-benzo[e][1,2]oxaborinine-8-carboxylic acid], the MIC [4] was 32 to 64 µg/mL, the pEC50 [1] was 3.30 to 4.52 and the MIC [2] was under 64 µg/mL. For the same compound, the MIC (S. aureus ATCC 29213) was 64 to 128 µg/mL, the pEC50 [5, 6] was over 5.00 and the MIC (E. coli DH5α/pLBII) was 32 to 64 µg/mL.

With CCN1CCN(C(=O)NC(C(=O)N[C@H]2Cc3cc(OC)cc(C(=O)O)c3OB2O)c2csc(N)n2)C(=O)C1=O (stereo partly drawn) [Example 38, (3R)-3-(2-(2-aminothiazol-4-yl)-2-(4-ethyl-2,3-dioxopiperazine-1-carboxamido)acetamido)-2-hydroxy-6-methoxy-3,4-dihydro-2H-benzo[e][1,2]oxaborinine-8-carboxylic acid] the MIC [4] was 32 to 64 µg/mL, the pEC50 [1] was under 3.30 and the MIC [2] was under 64 µg/mL. The MIC (S. aureus ATCC 29213) was 64 to 128 µg/mL, the pEC50 [5, 6] was over 5.00 and the MIC (E. coli DH5α/pLBII) was 32 to 64 µg/mL.

Nc1nc(C(NC(=O)N2CCN(CC3CC3)C(=O)C2=O)C(=O)N[C@H]2Cc3cccc(C(=O)O)c3OB2O)cs1 (stereo partly drawn) [Example 67, (3R)-3-(2-(2-aminothiazol-4-yl)-2-(4-(cyclopropylmethyl)-2,3-dioxopiperazine-1-carboxamido)acetamido)-2-hydroxy-3,4-dihydro-2H-benzo[e][1,2]oxaborinine-8-carboxylic acid] was tested, and the MIC [4] was 32 to 64 µg/mL, the pEC50 [1] was 3.30 to 4.52 and the MIC [2] was under 64 µg/mL. The MIC (S. aureus ATCC 29213) was 64 to 128 µg/mL, the pEC50 [3] was over 5.00 and the MIC (E. coli DH5α/pLBII) was 32 to 64 µg/mL.

CCN1CCN(CC(=O)NC(C(=O)N[C@H]2Cc3cccc(C(=O)O)c3OB2O)c2csc(N)n2)C(=O)C1=O (stereo partly drawn) [Example 45, (3R)-3-(2-(2-aminothiazol-4-yl)-2-(2-(4-ethyl-2,3-dioxopiperazin-1-yl)acetamido)acetamido)-2-hydroxy-3,4-dihydro-2H-benzo[e][1,2]oxaborinine-8-carboxylic acid] was tested, and the MIC [4] was 32 to 64 µg/mL, the pEC50 [1] was 3.30 to 4.52 and the MIC [2] was under 64 µg/mL. It also gave an MIC (S. aureus ATCC 29213) of over 128 µg/mL, a pEC50 [5, 6] of over 5.00 and an MIC (E. coli DH5α/pLBII) of 32 to 64 µg/mL.

For Nc1nc(C(=O)NC(C(=O)N[C@H]2Cc3cccc(C(=O)O)c3OB2O)c2csc(N)n2)cs1 (stereo partly drawn) [Example 17, (3R)-3-(2-(2-aminothiazol-4-yl)-2-(2-aminothiazole-4-carboxamido)acetamido)-2-hydroxy-3,4-dihydro-2H-benzo[e][1,2]oxaborinine-8-carboxylic acid], the MIC [4] was 32 to 64 µg/mL, the pEC50 [1] was 3.30 to 4.52 and the MIC [2] was under 64 µg/mL. The MIC (S. aureus ATCC 29213) was under 64 µg/mL, the pEC50 [5, 6] was under 4.00 and the MIC (E. coli DH5α/pLBII) was 32 to 64 µg/mL.

In the case of C[C@@H](O)[C@@H](NC(=O)N1CCN(CCF)C(=O)C1=O)C(=O)N[C@H]1Cc2cccc(C(=O)O)c2OB1O [Example 91, (R)-3-((2R,3R)-2-(4-(2-fluoroethyl)-2,3-dioxopiperazine-1-carboxamido)-3-hydroxybutanamido)-2-hydroxy-3,4-dihydro-2H-benzo[e][1,2]oxaborinine-8-carboxylic acid], the MIC [4] was 8 to 16 µg/mL, the pEC50 [1] was under 3.30 and the MIC [2] was under 64 µg/mL. For the same compound, the MIC (S. aureus ATCC 29213) was over 128 µg/mL and the pEC50 [3] was over 5.00.

Compound CCN1CCN(C(=O)N[C@@H](C(=O)N[C@H]2Cc3cccc(C(=O)O)c3OB2O)[C@H](C)O)C(=O)C1=O [Example 47, (R)-3-((2R,3S)-2-(4-Ethyl-2,3-dioxopiperazine-1-carboxamido)-3-hydroxy-butanamido)-2-hydroxy-3,4-dihydro-2H-benzo[e][1,2]oxaborinine-8-carboxylic acid] has an MIC [4] of 8 to 16 µg/mL, a pEC50 [1] of under 3.30 and an MIC [2] of under 64 µg/mL. It also gave an MIC (S. aureus ATCC 29213) of over 128 µg/mL, a pEC50 [5, 6] of over 5.00 and an MIC (E. coli DH5α/pLBII) of 8 to 16 µg/mL.

CCC(O)[C@@H](NC(=O)N1CCN(CC)C(=O)C1=O)C(=O)N[C@H]1Cc2cccc(C(=O)O)c2OB1O (single isomer, unassigned) [Example 82] showed an MIC [4] of 32 to 64 µg/mL, a pEC50 [1] of 3.30 to 4.52 and an MIC [2] of under 64 µg/mL. For the same compound, the MIC (S. aureus ATCC 29213) was over 128 µg/mL, the pEC50 [5, 6] was over 5.00 and the MIC (E. coli DH5α/pLBII) was 32 to 64 µg/mL.

CCN1CCN(C(=O)NC(C(=O)N[C@H]2Cc3cc(O)cc(C(=O)O)c3OB2O)c2csc(N)n2)C(=O)C1=O (stereo partly drawn) [Example 39, (3R)-3-(2-(2-aminothiazol-4-yl)-2-(4-ethyl-2,3-dioxopiperazine-1-carboxamido)acetamido)-2,6-dihydroxy-3,4-dihydro-2H-benzo[e][1,2]oxaborinine-8-carboxylic acid] was tested, and the MIC [4] was 32 to 64 µg/mL, the pEC50 [1] was 3.30 to 4.52 and the MIC [2] was under 64 µg/mL. It also gave an MIC (S. aureus ATCC 29213) of over 128 µg/mL, a pEC50 [5, 7] of 4.00 to 5.00 and an MIC (E. coli DH5α/pLBII) of 32 to 64 µg/mL.

For Nc1nc(C(NC(=O)N2CCS(=O)(=O)CC2)C(=O)N[C@H]2Cc3cccc(C(=O)O)c3OB2O)cs1 (stereo partly drawn) [Example 65, (3R)-3-(2-(2-aminothiazol-4-yl)-2-(1,1-dioxidothiomorpholine-4-carboxamido)acetamido)-2-hydroxy-3,4-dihydro-2H-benzo[e][1,2]oxaborinine-8-carboxylic acid], the MIC [4] was 32 to 64 µg/mL, the pEC50 [1] was 3.30 to 4.52 and the MIC [2] was under 64 µg/mL. It also gave an MIC (S. aureus ATCC 29213) of 64 to 128 µg/mL, a pEC50 [5, 7] of over 5.00 and an MIC (E. coli DH5α/pLBII) of 32 to 64 µg/mL.

Work on CCN1CCN(C(=O)N[C@H](C(=O)N[C@H]2Cc3cccc(C(=O)O)c3OB2O)[C@H](O)CO)C(=O)C1=O [Example 73, (R)-3-((2S,3S)-2-(4-ethyl-2,3-dioxopiperazine-1-carboxamido)-3,4-dihydroxybutanamido)-2-hydroxy-3,4-dihydro-2H-benzo[e][1,2]oxaborinine-8-carboxylic acid] yielded an MIC [4] of over 512 µg/mL, a pEC50 [1] of under 3.30 and an MIC [2] of over 128 µg/mL. It also gave an MIC (S. aureus ATCC 29213) of over 128 µg/mL, a pEC50 [3] of under 4.00 and an MIC (E. coli DH5α/pLBII) of over 512 µg/mL.

CCN1CCN(C(=O)N[C@@H](C(=O)N[C@H]2Cc3cccc(C(=O)O)c3OB2O)[C@@H](C)O)C(=O)C1=O [Example 48, (R)-3-((2R,3R)-2-(4-Ethyl-2,3-dioxopiperazine-1-carboxamido)-3-hydroxy-butanamido)-2-hydroxy-3,4-dihydro-2H-benzo[e][1,2]oxaborinine-8-carboxylic acid] was tested, and the MIC [4] was 8 to 16 µg/mL, the pEC50 [1] was 3.30 to 4.52 and the MIC [2] was under 64 µg/mL. It also gave an MIC (S. aureus ATCC 29213) of over 128 µg/mL, a pEC50 [5, 6] of over 5.00 and an MIC (E. coli DH5α/pLBII) of 8 to 16 µg/mL.

With Nc1nc(C(NC(=O)N2CCN(C3CC3)C(=O)C2=O)C(=O)N[C@H]2Cc3cccc(C(=O)O)c3OB2O)cs1 (stereo partly drawn) [Example 44, (3R)-3-(2-(2-aminothiazol-4-yl)-2-(4-cyclopropyl-2,3-dioxopiperazine-1-carboxamido)acetamido)-2-hydroxy-3,4-dihydro-2H-benzo[e][1,2]oxaborinine-8-carboxylic acid] the MIC [4] was 32 to 64 µg/mL, the pEC50 [1] was 3.30 to 4.52 and the MIC [2] was under 64 µg/mL. It also gave an MIC (S. aureus ATCC 29213) of 64 to 128 µg/mL, a pEC50 [5, 6] of over 5.00 and an MIC (E. coli DH5α/pLBII) of 32 to 64 µg/mL.
